Results reported in ChEMBL document CHEMBL5329215, “Review and prospects of targeted therapies for Spleen tyrosine kinase (SYK)” (Bioorg Med Chem, 2023).

How the values were obtained:
[1] = target: Tyrosine-protein kinase SYK (Homo sapiens, UniProt P43405); experiment: Inhibition of human SYK at Py+3 pocket
[2] = PROTAC activity at E3 ubiquitin ligase (unknown origin)/STAT5 (unknown origin) assessed as […]

Row | IC50 [1] [µM] | EC50 [2] [µM] | SMILES
1 | 38 | – | O=C(O)CCCCN(CCCC1CCCCC1)S(=O)(=O)/C=C/c1ccc(NC(=O)C2CCC(C(C(=O)O)C(=O)O)CC2)cc1 (configuration not stated)
2 | – | 0.1 | CN(CCCC#Cc1cccc2c1CN(C1CCC(=O)NC1=O)C2=O)C(=O)CCN(C(=O)[C@@H]1CCCN1C(=O)[C@H](NC(=O)c1cc2cc(C(F)(F)P(=O)(O)O)ccc2s1)C(C)(C)C)c1ccc(-c2nccs2)cc1 (some centres not stated)
